Drawing on patent US12599672B2, “KRAS proteolysis targeting chimeras” (PAQ Therapeutics Inc., priority 2023, dated 2026), this text covers DC50 for ten compounds.

What all share (format): cell-based
The target in one assay is T1, KRAS (Homo sapiens, UniProt P01116).
T1 construct: endogenous in cells; host or cells: KE39 (KRAS amplified) cells
The assay can be described thus: KRASamp MSD assay. The conditions noted are these: KE39 (KRAS amplified) cells, treated with test compounds for 24 hr, MSD readout of KRAS degradation. In short, it runs like this: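 KRAS-amplified KE39 cells treated with compound for 24 hr, then lysed in RIPA buffer with protease/phosphatase inhibitors. KRAS protein measured by MSD sandwich immunoassay against a recombinant WT KRAS standard curve; DC50 derived from curve fitting of degradation.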

The next assay addresses T2, KRAS G12D (Homo sapiens, UniProt P01116, G12D).
T2 construct: AsPc-1-KRAS (G12D)-HiBit-KI cell (Pharmaron); host or cells: AsPc-1-KRAS (G12D)-HiBit-KI cells (HiBiT knock-in at the endogenous KRAS locus)
Description: KRAS G12D HiBit assay. The conditions noted are these: AsPc-1-KRAS (G12D)-HiBit-KI cell, compound treatment for 24 hours, absolute DC50. In short, it runs like this: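 Cells were treated for 24 h with compounds in a 3-fold, 10-point dilution series from a 0.3 mM DMSO stock, then equilibrated 15 min at room temperature. KRAS G12D HiBiT levels were read by luminescence after lytic Nano-Glo HiBiT reagent with LgBiT; inhibition calculated relative to 0.1% DMSO high control.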
On the technique in general: HiBiT is a short tag that completes a luciferase, so light tracks the accessible tagged protein.

In the next assay the target is T3, KRAS G12V (Homo sapiens, UniProt P01116, G12V).
T3 construct: SW620-KRAS (G12V)-HiBit-KI cell (Pharmaron); host or cells: SW620-KRAS (G12V)-HiBit-KI cells (HiBiT knock-in at the endogenous KRAS locus)
T3 sequence (P01116 1-188 isoform P01116-2 G12V): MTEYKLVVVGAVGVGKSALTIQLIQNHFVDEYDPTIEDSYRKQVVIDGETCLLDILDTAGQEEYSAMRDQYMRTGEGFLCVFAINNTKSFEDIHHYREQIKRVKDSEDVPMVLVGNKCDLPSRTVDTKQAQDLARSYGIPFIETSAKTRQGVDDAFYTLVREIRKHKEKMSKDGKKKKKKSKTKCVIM
The assay can be described thus: KRAS G12V HiBit assay. The conditions noted are these: SW620-KRAS (G12V)-HiBit-KI cells, compound treatment for 24 hours, class symbols. In short, it runs like this: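 HiBiT-tagged KRAS G12V cells treated 24 h with compound in a 3-fold, 10-point series (0.3 mM DMSO stock); lytic HiBiT reagent with LgBiT added after 15 min room-temperature equilibration. Degradation calculated against 0.1% DMSO high control.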

Bounds are passed on as bounds.

T2 sequence (P01116 1-188 isoform P01116-2 G12D): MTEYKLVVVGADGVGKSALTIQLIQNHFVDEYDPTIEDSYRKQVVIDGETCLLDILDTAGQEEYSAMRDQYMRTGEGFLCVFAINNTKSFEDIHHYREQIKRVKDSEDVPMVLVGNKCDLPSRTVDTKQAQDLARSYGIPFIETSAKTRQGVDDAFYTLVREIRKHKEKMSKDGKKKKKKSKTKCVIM
T1 sequence (P01116 1-188 isoform P01116-2): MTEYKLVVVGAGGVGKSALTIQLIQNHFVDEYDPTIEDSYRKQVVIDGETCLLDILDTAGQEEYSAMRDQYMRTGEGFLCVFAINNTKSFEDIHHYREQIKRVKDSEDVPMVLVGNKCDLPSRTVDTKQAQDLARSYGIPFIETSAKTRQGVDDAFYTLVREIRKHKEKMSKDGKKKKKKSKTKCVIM

In the case of `CCc1c(F)ccc2cc(O)cc(-c3ncc4c(N5CCC[C@@](C)(O)C5)nc(OC[C@@]56CCCN5[C@H](COC(=O)N5CCC(C#CC7CCN(c8ccc9c(c8)n(C)c(=O)n9C8CCC(=O)NC8=O)CC7)CC5)CC6)nc4c3F)c12` (stereo partly drawn) [Compound 500, [(3S,7aS)-7a-({[7-(8-ethyl-7-fluoro-3-hydroxynaphthalen-1-yl)-8-fluoro-4-[(3R)-3-hydroxy-3-methylpiperidin-1-yl]pyrido[4,3-d]pyrimidin-2-yl]oxy}methyl)-hexahydropyrrolizin-3-yl]methyl 4-(2-{1-[1-(2,6-dioxopiperidin-3-yl)-3-methyl-2-oxo-1,3-benzodiazol-5-yl]piperidin-4-yl}ethynyl) piperidine-1-carboxylate], the DC50 on KRAS is less than 1 nM; at KRAS G12D (class symbols), less than 100 nM; at KRAS G12V, less than 10 nM.

As to `CCc1c(F)ccc2cc(O)cc(-c3ncc4c(N5CCCCC5)nc(OC[C@@]56CCCN5[C@H](CN5CCC(CN7CCC(c8ccc9c(c8)n(C)c(=O)n9C8CCC(=O)NC8=O)CC7)CC5)CC6)nc4c3F)c12` (stereo partly drawn) [Compound 379, 3-(5-(1-((1-(((3S,7aS)-7a-(((7-(8-ethyl-7-fluoro-3-hydroxynaphthalen-1-yl)-8-fluoro-4-(piperidin-1-yl)pyrido[4,3-d]pyrimidin-2-yl)oxy)methyl)hexahydro-1H-pyrrolizin-3-yl)methyl)piperidin-4-yl)methyl)piperidin-4-yl)-3-methyl-2-oxo-2,3-dihydro-1H-benzo[d]imidazol-1-yl)piperidine-2,6-dione], the values for the DC50 at KRAS, on KRAS G12D (class symbols) and at KRAS G12V were less than 1 nM, less than 100 nM and less than 10 nM, respectively.

As to `CCc1c(F)ccc2cc(O)cc(-c3ncc4c(N5CCC[C@@](C)(O)C5)nc(OC[C@@]56CCCN5[C@H](COC(=O)N5CCC7(CCC(CN8CCC(c9ccc%10c(c9)n(C)c(=O)n%10C9CCC(=O)NC9=O)CC8)CC7)CC5)CC6)nc4c3F)c12` (stereo partly drawn) [Compound 466, ((3S,7aS)-7a-(((7-(8-ethyl-7-fluoro-3-hydroxynaphthalen-1-yl)-8-fluoro-4-((R)-3-hydroxy-3-methylpiperidin-1-yl)pyrido[4,3-d]pyrimidin-2-yl)oxy)methyl)hexahydro-1H-pyrrolizin-3-yl)methyl 9-((4-(1-(2,6-dioxopiperidin-3-yl)-3-methyl-2-oxo-2,3-dihydro-1H-benzo[d]imidazol-5-yl)piperidin-1-yl)methyl)-3-azaspiro[5.5]undecane-3-carboxylate], the results for the DC50 at KRAS, on KRAS G12D (class symbols) and at KRAS G12V were less than 1 nM, less than 100 nM and less than 10 nM, respectively.

On to `C#Cc1c(F)ccc2cc(O)cc(-c3ncc4c(N5CCC[C@@](C)(O)C5)nc(OC[C@@]56CCCN5[C@H](COC(=O)N5CCC(CN7CCC(c8cc9c(cc8F)n(C8CCC(=O)NC8=O)c(=O)n9C)CC7)CC5)CC6)nc4c3F)c12` (stereo partly drawn) [Compound 407, ((3S,7aS)-7a-(((7-(8-ethynyl-7-fluoro-3-hydroxynaphthalen-1-yl)-8-fluoro-4-((R)-3-hydroxy-3-methylpiperidin-1-yl)pyrido[4,3-d]pyrimidin-2-yl)oxy)methyl)hexahydro-1H-pyrrolizin-3-yl)methyl 4-((4-(1-(2,6-dioxopiperidin-3-yl)-6-fluoro-3-methyl-2-oxo-2,3-dihydro-1H-benzo[d]imidazol-5-yl)piperidin-1-yl)methyl)piperidine-1-carboxylate], for which the DC50 was less than 1 nM on KRAS, less than 100 nM on KRAS G12D (class symbols) and less than 10 nM at KRAS G12V.

`C#Cc1c(F)ccc2cc(O)cc(-c3ncc4c(N5CCC[C@@](C)(O)C5)nc(OC[C@@]56CCCN5[C@H](COC(=O)N5CC7(CCC(CN8CCC(c9ccc%10c(c9)n(C)c(=O)n%10C9CCC(=O)NC9=O)CC8)CC7)C5)CC6)nc4c3F)c12` (stereo partly drawn) [Compound 421, ((3S,7aS)-7a-(((7-(8-ethynyl-7-fluoro-3-hydroxynaphthalen-1-yl)-8-fluoro-4-((R)-3-hydroxy-3-methylpiperidin-1-yl)pyrido[4,3-d]pyrimidin-2-yl)oxy)methyl)hexahydro-1H-pyrrolizin-3-yl)methyl 7-((4-(1-(2,6-dioxopiperidin-3-yl)-3-methyl-2-oxo-2,3-dihydro-1H-benzo[d]imidazol-5-yl)piperidin-1-yl)methyl)-2-azaspiro[3.5]nonane-2-carboxylate]: the DC50 on KRAS was less than 1 nM; on KRAS G12D (class symbols), less than 100 nM; on KRAS G12V, less than 10 nM.

On to `C#Cc1c(F)ccc2cccc(-c3ncc4c(N5CCC[C@@](C)(O)C5)nc(OCC5(CN6CCC7(CC6)CN(c6ccc8c(c6)n(C)c(=O)n8C6CCC(=O)NC6=O)C7)CC5)nc4c3F)c12` (stereo partly drawn) [Compound 40], for which the DC50 on KRAS is no less than 10 nM; at KRAS G12D (class symbols), greater than 300 nM; on KRAS G12V, greater than 100 nM.

As to `C#Cc1c(F)ccc2cc(O)cc(-c3ncc4c(N5CCC[C@@](C)(O)C5)nc(OC[C@@]56CCCN5[C@H](COC(=O)NC5CCN(C7CCN(c8ccc9c(c8)n(C)c(=O)n9C8CCC(=O)NC8=O)CC7)CC5)CC6)nc4c3F)c12` (stereo partly drawn) [Compound 324, ((3S,7aS)-7a-(((7-(8-ethynyl-7-fluoro-3-hydroxynaphthalen-1-yl)-8-fluoro-4-((R)-3-hydroxy-3-methylpiperidin-1-yl)pyrido[4,3-d]pyrimidin-2-yl)oxy)methyl)hexahydro-1H-pyrrolizin-3-yl)methyl (1′-(1-(2,6-dioxopiperidin-3-yl)-3-methyl-2-oxo-2,3-dihydro-1H-benzo[d]imidazol-5-yl)-[1,4′-bipiperidin]-4-yl)carbamate], the DC50 on KRAS was no less than 10 nM; on KRAS G12D (numeric bounds given in place of class symbols), greater than 100 nM; on KRAS G12V, greater than 100 nM.

Regarding `CCc1c(F)ccc2cc(O)cc(-c3ncc4c(N5CCC[C@@](C)(O)C5)nc(OC[C@@]56CCCN5[C@H](COC(=O)N5CCC(CN7CCC(Cc8ccc9c(c8)n(C)c(=O)n9C8CCC(=O)NC8=O)CC7)CC5)CC6)nc4c3F)c12` (stereo partly drawn) [Compound 429, ((3S,7aS)-7a-(((7-(8-ethyl-7-fluoro-3-hydroxynaphthalen-1-yl)-8-fluoro-4-((R)-3-hydroxy-3-methylpiperidin-1-yl)pyrido[4,3-d]pyrimidin-2-yl)oxy)methyl)hexahydro-1H-pyrrolizin-3-yl)methyl 4-((4-((1-(2,6-dioxopiperidin-3-yl)-3-methyl-2-oxo-2,3-dihydro-1H-benzo[d]imidazol-5-yl)methyl)piperidin-1-yl)methyl)piperidine-1-carboxylate], the DC50 on KRAS was less than 1 nM; on KRAS G12D (class symbols), less than 100 nM; at KRAS G12V it was less than 10 nM.

For `CCc1c(F)ccc2cc(O)cc(-c3ncc4c(N5CCC[C@@](C)(O)C5)nc(OC[C@@]56CCCN5[C@@H](COC(=O)N5CCC(CCCCOc7ccc8c(c7)n(C)c(=O)n8C7CCC(=O)NC7=O)CC5)CC6)nc4c3F)c12` (stereo partly drawn) [Compound 317, ((3R,7aS)-7a-(((7-(8-ethyl-7-fluoro-3-hydroxynaphthalen-1-yl)-8-fluoro-4-((R)-3-hydroxy-3-methylpiperidin-1-yl)pyrido[4,3-d]pyrimidin-2-yl)oxy)methyl)hexahydro-1H-pyrrolizin-3-yl)methyl 4-(4-((1-(2,6-dioxopiperidin-3-yl)-3-methyl-2-oxo-2,3-dihydro-1H-benzo[d]imidazol-5-yl)oxy)butyl)piperidine-1-carboxylate], the DC50 at KRAS is no less than 10 nM; at KRAS G12D (class symbols), less than 100 nM; at KRAS G12V, greater than 100 nM.

Take `C#Cc1c(F)ccc2cc(O)cc(-c3ncc4c(N5CCC[C@@](C)(O)C5)nc(OCC5(CN6CCC(N7CCC(c8cccc9c(C%10CCC(=O)NC%10=O)nn(C)c89)CC7)CC6)CC5)nc4c3F)c12` (stereo partly drawn) [Compound 77]: the DC50 on KRAS is 1 to 10 nM; on KRAS G12D (class symbols), less than 100 nM; on KRAS G12V, less than 10 nM.
